Reference: US20040115800A1, “Selectable marker for genetically engineered cells and tissues” (priority 2003, published 2004)

Experiments:
[1] = test system: primary mouse marrow stromal cells; experiment: In vitro selection and enrichment assay of CD gene-modified marrow stroma (flow cytometry); type: cell-based; settings: for % GFP+ cells: 10% CD-IRES-EGFP stroma mixture (11.7% without ARA-C); for mean GFP fluorescence: 10% CD-IRES-EGFP stroma mixture (13.0±3.0 without ARA-C)
Procedure: One female C57BI/6 mouse was sacrificed by CO2 inhalation and bone marrow cells harvested by flushing the hind leg femurs and tibias with DMEM™ supplemented with 10% FBS and 50 U/ml Pen/Strep. Whole marrow was plated in 10 cm (diameter) tissue culture dishes and five days later, the nonadherent hematopoietic cells were discarded and the adherent bone marrow stromal cells cultured (for ˜3 months) at 37° C. with 5% CO2. Supernatant containing virions from subconfluent GP+envAM12-CD-IRES-EGFP or from control GP+envAM12-Neo^R-IRES-EGFP producers was placed over marrow stromal cells plated at subconfluence. Transduction was carried out twice a day for three successive days in the presence of 6 μg/ml Lipofectamine™. Over 72 hours pursuing to the last transduction round, flow cytometry analysis for GFP expression was performed to evaluate the gene transfer efficiency.
Drug exposure was ceased 7 days later, and cells expanded for an additional week in DMEMI with 10% FBS and 50U/ml Pen/Strep and analysed by flow cytometry analysis. […] Pursuant to a 1-week drug exposure (preventing total confluence by cell passaging) and subsequent week of cell expansion, percent GFP positive cells and mean GFP fluorescence were evaluated by flow cytometry analysis.

A549-IRES-EGFP cells = experiment: Growth inhibition assay (MTT), control-vector A549 cells; type: cell-based, human; settings: 4 days
Procedure: (§1) . […] Five days following the last transduction round, flow cytometry analysis was performed to determine gene transfer efficiency and transgene expression as evaluated by GFP fluorescence. Stably transduced A549-CD-IRES-EGFP cells were subsequently expanded in complete media only, as well as in the presence of two different concentrations of ARA-C, 1 μM and 2.5 μM, for 12 days.
(§2) Gene-modified A549 cells were plated in 96-well flat-bottom tissue culture dishes at a density of 1500 cells per well. Various concentrations of ARA-C or dFdC (Lilly Research Laboratories, Indianapolis, Ind.) were added to cells in a final volume of 100 μl RPMI/10% FBS. Cells were placed at 37° C. and 4 days later exposed to 20 μl of a solution containing 3-(4,5-deimethylthiazol-2-yl)-2,5-diphenyltetrazolium bromide, i.e. MTT, for 4 hours at 37° C., and subsequently to 100 μl of a solubilization buffer (50% N,N-dimethylformamide, 20% SDS) for approximately 15 hours. The optical density was then measured at 570 nm with reference at 630 nm using a multi-well plate reader, thus providing an assessment of the percentage of surviving cells based on the cleavage of MTT by the mitochondrial dehydrogenases of living cells to the detectable formazan. Percent cell survival was ascertained using the following equation: [formula]

untransduced A549 cells = experiment: Growth inhibition assay (MTT), parental A549 cells; type: cell-based, human; settings: 4 days
Procedure: A549 human lung carcinoma cells, obtained from American Type Culture Collection (ATCC), were maintained in RPMI 1640 medium (Canadian Life Technologies) supplemented with 10% heat-inactivated FBS.
as §2

[2] = test system: primary human lymphocytes transduced with CD-IRES-EGFP; experiment: Growth suppression assay (trypan blue), CD gene-modified lymphocytes; type: cell-based; settings: two weeks
Excerpt: (§3) Primary human lymphocytes were isolated from peripheral blood by Ficoll Hypaque™ centrifugation and plated at a cell density of ˜1×10^6 cells/ml in RPMI supplemented with 10% FBS, 50 U/ml Pen/Strep, and 200 U/ml human IL-2. The next day, lymphocytes were activated with phytohemagglutinin (PHA) for 72 hrs and subsequently co-cultivated over subconfluent 293GPG-CD-IRES-EGFP or control 293GPG-IRES-EGFP virus producers tetracycline withdrawn three days earlier for optimal high titer virion generation. Lipofectaminel was added for a final concentration of 6 μg/ml, and co-cultivation permitted to proceed for 48 hours. Lymphocytes were then carefully collected and three days later plated at a density of 600 000 cells per well of 48-well tissue culture dishes in the absence or presence of various concentrations of ARA-C in a final volume of 800 μl) complete media. After a two week period, viable cells were enumerated by trypan blue exclusion and cell survival measured as such: % cell survival=(number of cells in test well/number of cells grown in media only)×100. (Flow cytometry analysis for CD3 expression was conducted and all cells confirmed to be lymphocytes.)

[3] = test system: 2.5 μM ARA-C selected A549-CD-IRES-EGFP cells; experiment: Growth inhibition assay (MTT), ARA-C-selected CD gene-modified A549 cells; type: cell-based, human; settings: 4 days
Procedure: as §1, §2

[4] = test system: primary human lymphocytes transduced with IRES-EGFP; experiment: Growth suppression assay (trypan blue), control-vector lymphocytes; type: cell-based; settings: two weeks
Excerpt: as §3

A549-CD-IRES-EGFP cells = experiment: Growth inhibition assay (MTT), CD gene-modified A549 cells; type: cell-based, human; settings: for % cell survival: 4 days, MTT
Procedure: as §1, §2

SMILES: Nc1ccn([C@@H]2O[C@H](CO)[C@@H](O)[C@@H]2O)c(=O)n1 [ARA-C, cytosine arabinoside]
- % GFP+ cells ([1]; 0.25 μM ARA-C 1 week + 1 week culture): 51.5%
- % GFP+ cells ([1]; 2.5 μM ARA-C 1 week + 1 week culture): 99.6%
- effect on untransduced and NeoR-IRES-EGFP modified stroma ([1]; ARA-C 2.5 μM (printed 2.5 CM)): completely eradicate
- mean GFP fluorescence ([1]; selected in 1 μM ARA-C): 48.3±6.5
- mean GFP fluorescence ([1]; selected in 2.5 μM ARA-C): 99.3±3.3
- % cell survival (A549-IRES-EGFP cells; ARA-C 1 μM): 10.6±0.4%
- % cell survival (untransduced A549 cells; ARA-C 1 μM, untransduced A549, MTT): 15.3±0.6%
- % cell survival ([2]; ARA-C 1 μM): 87.5±7.2%
- % cell survival ([2]; ARA-C 5 μM): 98.1 ± 4.2%
- % cell survival ([3]; ARA-C 1 μM, CD-modified A549 previously selected in 2.5 μM ARA-C for 12 days, MTT): 70.7±1.3%
- % cell survival ([4]; ARA-C 1 μM, IRES-EGFP transduced lymphocytes): 5.5±1.7%
- % cell survival ([4]; ARA-C 5 μM, IRES-EGFP-modified lymphocytes): 0.1±0.1%
- survival of A549-CD-IRES-EGFP relative to control cells (A549-CD-IRES-EGFP cells; ARA-C 1 μM): over 3 fold
- % cell survival (A549-CD-IRES-EGFP cells; ARA-C 1 μM, A549-CD-IRES-EGFP without post-transduction drug selection): 47.4±1.9%

SMILES: Nc1ccn([C@@H]2O[C@H](CO)[C@@H](O)C2(F)F)c(=O)n1 [dFdC]
- % cell survival (A549-IRES-EGFP cells; dFdC 0.1M (so in the source)): 10.7±0.4%
- % cell survival (untransduced A549 cells; dFdC 0.1M (so in the source), A549, MTT): 15.1±0.5%
- % cell survival ([3]; dFdC 0.1 μM, 2.5 μM ARA-C selected CD-IRES-EGFP modified A549, MTT): 92.1±1.7%
- % cell survival ([3]; dFdC 1 μM, 2.5 μM ARA-C selected cells, MTT): 53.3±1.8%
- % cell survival (A549-CD-IRES-EGFP cells; dFdC 1 μM, unselected A549-CD-IRES-EGFP): 17.2±0.7%
- % cell survival (A549-CD-IRES-EGFP cells; dFdC same concentration (0.1), A549-CD-IRES-EGFP unselected): 86.4±2.4%
